Read-outs that look alike come from different tables or passages of the source.
Key:
Assay type in all cases: in vivo
Soybean [1] = experiment: post-emergence herbicide test; conditions: Glycine max, post-emergence, read-out: % plant inhibition
In short: (§1)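 Herbicidal effect measured as percent inhibition of each plant species after spraying. Application: atomizer, 170.3 kPa, 1870 L/Ha, about 0.4% emulsifier, to plants aged two to three weeks in greenhouse soil pans.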

Bedstraw Catchweed = experiment: post-emergence herbicide test; conditions: Galium aparine, post-emergence, read-out: % plant inhibition
In short: as §1

Barnyardgrass [2] = experiment: post-emergence herbicide test; conditions: Echinochloa crus-galli, post-emergence, read-out: % plant inhibition
In short: as §1

Blackgrass = experiment: post-emergence herbicide test; conditions: Alopecurus myosuroides, post-emergence, read-out: % plant inhibition; for inhibition at 200.072 g/ha: 0.1785 lb/A; for inhibition at 1000.92 g/ha: 0.893 lb/A; for inhibition at 5043.82 g/ha: 4.5 lb/A
In short: as §1

Cocklebur [3] = experiment: post-emergence herbicide test; conditions: Xanthium strumarium, post-emergence, read-out: % plant inhibition
In short: as §1

Corn [4] = experiment: post-emergence herbicide test; conditions: Zea mays, post-emergence, read-out: % plant inhibition
In short: as §1

Yellow Nutsedge = experiment: pre-emergence herbicide test; conditions: Cyperus, read-out: % plant inhibition
In short: (§2)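 Greenhouse pan assay in which seeds lie under a treated topsoil cover; carrier was acetone or water. Inhibition (%) was recorded about 14 days post-treatment.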

Morning Glory = experiment: pre-emergence herbicide test; conditions: Ipomoea, pre-emergence, read-out: % plant inhibition
In short: as §2

Rice = experiment: pre-emergence herbicide test; conditions: Oryza sativa, read-out: % plant inhibition
In short: as §2

Soybean [5] = experiment: pre-emergence herbicide test; conditions: Glycine max, pre-emergence, read-out: % plant inhibition
In short: as §2

Barnyardgrass [6] = experiment: pre-emergence herbicide test; conditions: Echinochloa crus-galli, pre-emergence, read-out: % plant inhibition
In short: as §2

Yellow Foxtail = experiment: pre-emergence herbicide test; conditions: Setaria, read-out: % plant inhibition
In short: as §2

Cocklebur [7] = experiment: pre-emergence herbicide test; conditions: Xanthium strumarium, pre-emergence, read-out: % plant inhibition
In short: as §2

Corn [8] = experiment: pre-emergence herbicide test; conditions: Zea mays, pre-emergence, read-out: % plant inhibition
In short: as §2

Velvetleaf = experiment: pre-emergence herbicide test; conditions: Abutilon theophrasti, pre-emergence, read-out: % plant inhibition
In short: as §2

## Cc1c(-c2cc(F)ccc2F)nn(C)c1C(F)(F)F [Compound 1, 3-(2,5-Difluorophenyl)-1,4-dimethyl-5-(trifluoromethyl)-1H-pyrazole]
Soybean [1]; 0.1785 lb/A
  inhibition at 200.072 g/ha: 0%
Soybean [1]; 0.893 lb/A
  inhibition at 1000.92 g/ha: 0%
Soybean [1]; 4.5 lb/A
  inhibition at 5043.82 g/ha: 0%
Bedstraw Catchweed; 0.1785 lb/A
  inhibition at 200.072 g/ha: 0%
Bedstraw Catchweed; 0.893 lb/A
  inhibition at 1000.92 g/ha: 0%
Bedstraw Catchweed; 4.5 lb/A
  inhibition at 5043.82 g/ha: 30%
Barnyardgrass [2]; 0.1785 lb/A
  inhibition at 200.072 g/ha: 0%
Barnyardgrass [2]; 0.893 lb/A
  inhibition at 1000.92 g/ha: 0%
Barnyardgrass [2]; 4.5 lb/A
  inhibition at 5043.82 g/ha: 0%
Blackgrass; Table 4a
  inhibition at 200.072 g/ha: 0%
  inhibition at 1000.92 g/ha: 0%
  inhibition at 5043.82 g/ha: 0%
Blackgrass; Table 5a
  inhibition at 200.072 g/ha: 0%
  inhibition at 1000.92 g/ha: 0%
  inhibition at 5043.82 g/ha: 35%
Cocklebur [3]; 0.1785 lb/A
  inhibition at 200.072 g/ha: 0%
Cocklebur [3]; 0.893 lb/A
  inhibition at 1000.92 g/ha: 0%
Cocklebur [3]; 4.5 lb/A
  inhibition at 5043.82 g/ha: 0%
Corn [4]; 0.1785 lb/A
  inhibition at 200.072 g/ha: 0%
Corn [4]; 0.893 lb/A
  inhibition at 1000.92 g/ha: 0%
Corn [4]; 4.5 lb/A
  inhibition at 5043.82 g/ha: 40%
Yellow Nutsedge; 0.893 lb/A
  inhibition at 1000.92 g/ha: 0%
Yellow Nutsedge; 4.5 lb/A
  inhibition at 5043.82 g/ha: 45%
Morning Glory; 0.893 lb/A
  inhibition at 1000.92 g/ha: 0%
Morning Glory; 4.5 lb/A
  inhibition at 5043.82 g/ha: 35%
Rice; 0.893 lb/A
  inhibition at 1000.92 g/ha: 25%
Rice; 4.5 lb/A
  inhibition at 5043.82 g/ha: 0%
Soybean [5]; 0.893 lb/A
  inhibition at 1000.92 g/ha: 0%
Soybean [5]; 4.5 lb/A
  inhibition at 5043.82 g/ha: 0%
Barnyardgrass [6]; 0.893 lb/A
  inhibition at 1000.92 g/ha: 0%
Barnyardgrass [6]; 4.5 lb/A
  inhibition at 5043.82 g/ha: 50%
Yellow Foxtail; 0.893 lb/A
  inhibition at 1000.92 g/ha: 0%
Yellow Foxtail; 4.5 lb/A
  inhibition at 5043.82 g/ha: 35%
Cocklebur [7]; 0.893 lb/A
  inhibition at 1000.92 g/ha: 0%
Cocklebur [7]; 4.5 lb/A
  inhibition at 5043.82 g/ha: 0%
Corn [8]; 0.893 lb/A
  inhibition at 1000.92 g/ha: 0%
Corn [8]; 4.5 lb/A
  inhibition at 5043.82 g/ha: 10%
Velvetleaf; 0.893 lb/A
  inhibition at 1000.92 g/ha: 0%
Velvetleaf; 4.5 lb/A
  inhibition at 5043.82 g/ha: 65%
